Data published in ChEMBL document CHEMBL3045943, “Novel N-aryl(alkaryl)-2-[(3-R-2-oxo-2H-[1,2,4]triazino[2,3-c]quinazoline-6-yl)thio]acetamides: synthesis, cytotoxicity, anticancer activity, COMPARE analysis and docking” (2013).

Columns and labels:
Format in all cases: functional
[1] = system: NCI-H522; assay: Cytotoxicity against Homo sapiens (human) NCI-H522 cells assessed as cell growth at 10 uM after 48 hr by SRB assay relative to control; conditions: NCI-H522, 48 h, read-out: Activity
[2] = system: Photobacterium leiognathi; assay: Growth inhibition of Photobacterium leiognathi Sh1 assessed as bio-luminescence at 0.1 mg/ml after 16 to 18 hr by chronic action test relative to control; parameters: scale not given: the % may be the effect or the level left
[3] = system: Photobacterium leiognathi; assay: Growth inhibition of Photobacterium leiognathi Sh1 assessed as bio-luminescence at 0.025 mg/ml after 16 to 18 hr by chronic action test relative to control; parameters: scale not given: the % may be the effect or the level left
[4] = system: Photobacterium leiognathi; assay: Growth inhibition of Photobacterium leiognathi Sh1 assessed as bio-luminescence at 0.25 mg/ml after 10 min by acute action test relative to control; parameters: scale not given: the % may be the effect or the level left
[5] = system: Photobacterium leiognathi; assay: Growth inhibition of Photobacterium leiognathi Sh1 assessed as bio-luminescence at 0.1 mg/ml after 10 min by acute action test relative to control; parameters: scale not given: the % may be the effect or the level left
[6] = system: Photobacterium leiognathi; assay: Growth inhibition of Photobacterium leiognathi Sh1 assessed as bio-luminescence at 0.025 mg/ml after 10 min by acute action test relative to control; parameters: scale not given: the % may be the effect or the level left
[7] = system: SR; assay: Cytotoxicity against Homo sapiens (human) SR cells assessed as cell growth at 10 uM after 48 hr by SRB assay relative to control; conditions: read-out: Activity
[8] = system: Photobacterium leiognathi; assay: Growth inhibition of Photobacterium leiognathi Sh1 assessed as bio-luminescence at 0.25 mg/ml after 16 to 18 hr by chronic action test relative to control; parameters: scale not given: the % may be the effect or the level left
[9] = system: MOLT-4; assay: Cytotoxicity against Homo sapiens (human) MOLT4 cells assessed as cell growth at 10 uM after 48 hr by SRB assay relative to control; conditions: MOLT-4, 48 h, read-out: Activity
[10] = system: UO-31; assay: Cytotoxicity against Homo sapiens (human) UO31 cells assessed as cell growth at 10 uM after 48 hr by SRB assay relative to control; conditions: UO-31, 48 h, read-out: Activity
[11] = system: K562; assay: Cytotoxicity against Homo sapiens (human) K562 cells assessed as cell growth at 10 uM after 48 hr by SRB assay relative to control; conditions: K562, 48 h, read-out: Activity
[12] = system: LOX IMVI; assay: Cytotoxicity against Homo sapiens (human) LOXIMVI cells assessed as cell growth at 10 uM after 48 hr by SRB assay relative to control; conditions: read-out: Activity
[13] = system: U-251; assay: Cytotoxicity against Homo sapiens (human) U251 cells assessed as cell growth at 10 uM after 48 hr by SRB assay relative to control; conditions: U-251, 48 h, read-out: Activity

SMILES: Cc1ccc(-c2nn3c(SCC(=O)Nc4ccccc4C(=O)O)nc4ccccc4c3nc2=O)cc1
- growth at 10 µM [1]: 78.2%

SMILES: Cc1ccc(CNC(=O)CSc2nc3ccccc3c3nc(=O)c(C)nn23)cc1
- Activity [2]: 212.8%
- Activity [3]: 122.2%
- Activity [4]: 128.6%
- Activity [5]: 100%
- Activity [6]: 88.3%
- growth at 10 µM [7]: 81.8%
- Activity [8]: 150%

SMILES: COc1ccccc1CNC(=O)CSc1nc2ccccc2c2nc(=O)c(C)nn12
- Activity [2]: 160%
- Activity [3]: 93.3%
- Activity [4]: 139.4%
- Activity [5]: 110%
- Activity [6]: 89.2%
- growth at 10 µM [7]: 75.6%
- Activity [8]: 188%

SMILES: COc1ccc(CNC(=O)CSc2nc3ccccc3c3nc(=O)c(C)nn23)cc1
- Activity [2]: 176%
- Activity [3]: 138.7%
- Activity [4]: 151.5%
- Activity [5]: 130%
- Activity [6]: 92.3%
- growth at 10 µM [7]: 71.5%
- Activity [8]: 180%

SMILES: COc1ccc(CNC(=O)CSc2nc3ccccc3c3nc(=O)c(-c4ccccc4)nn23)cc1
- Activity [2]: 44.4%
- Activity [3]: 50%
- Activity [4]: 138.7%
- Activity [5]: 106.2%
- Activity [6]: 111.5%
- growth at 10 µM [9]: 78.7%
- Activity [8]: 40%

SMILES: Cc1nn2c(SCC(=O)NCc3cccc(C(F)(F)F)c3)nc3ccccc3c2nc1=O
- Activity [2]: 92.3%
- Activity [3]: 123.6%
- Activity [4]: 100%
- Activity [5]: 75%
- Activity [6]: 66.7%
- growth at 10 µM [10]: 54.5%
- Activity [8]: 193.3%

SMILES: O=C(CSc1nc2ccccc2c2nc(=O)c(-c3ccccc3)nn12)NCc1cccc(C(F)(F)F)c1
- Activity [2]: 10.67%
- Activity [3]: 13.33%
- Activity [4]: 17.78%
- Activity [5]: 33.33%
- Activity [6]: 66.67%
- Activity [8]: 0%

SMILES: Cc1nn2c(SCC(=O)NCc3ccccc3F)nc3ccccc3c2nc1=O
- Activity [2]: 233.3%
- Activity [3]: 130.2%
- Activity [4]: 170%
- Activity [5]: 66.7%
- Activity [6]: 116.7%
- growth at 10 µM [11]: 77.8%
- Activity [8]: 200%

SMILES: Cc1nn2c(SCC(=O)NCc3ccc(F)cc3)nc3ccccc3c2nc1=O
- Activity [2]: 123.1%
- Activity [3]: 118.2%
- Activity [4]: 91.7%
- Activity [5]: 78.8%
- Activity [6]: 77.8%
- growth at 10 µM [10]: 61.6%
- Activity [8]: 200%

SMILES: Cc1nn2c(SCC(=O)NCCc3ccccc3)nc3ccccc3c2nc1=O
- Activity [2]: 100%
- Activity [3]: 136.4%
- Activity [4]: 100%
- Activity [5]: 87.5%
- Activity [6]: 72.2%
- growth at 10 µM [10]: 77.3%
- Activity [8]: 133.3%

SMILES: O=C(CSc1nc2ccccc2c2nc(=O)c(-c3ccccc3)nn12)NCCc1ccccc1
- growth at 10 µM [12]: 61.1%
- Activity [2]: 400%
- Activity [3]: 222.2%
- Activity [4]: 119.4%
- Activity [5]: 121.5%
- Activity [6]: 109.5%
- Activity [8]: 57.1%

SMILES: Cc1ccc(-c2nn3c(SCC(=O)Nc4ccc(C(F)(F)F)cc4)nc4ccccc4c3nc2=O)cc1
- Activity [2]: 116.7%
- Activity [3]: 51.2%
- Activity [4]: 142.5%
- Activity [5]: 113.3%
- Activity [6]: 103.3%
- growth at 10 µM [7]: 66%
- Activity [8]: 100%

SMILES: Cc1nn2c(SCC(=O)Nc3ccccc3F)nc3ccccc3c2nc1=O
- Activity [2]: 196.43%
- Activity [3]: 142.86%
- Activity [4]: 50.56%
- Activity [5]: 73.03%
- Activity [6]: 84.27%
- Activity [8]: 142.86%

SMILES: O=C(CSc1nc2ccccc2c2nc(=O)c(-c3ccccc3)nn12)Nc1cccc(F)c1
- Activity [2]: 38.89%
- Activity [3]: 44.44%
- Activity [4]: 96.36%
- Activity [5]: 90.91%
- Activity [6]: 94.55%
- Activity [8]: 92.59%

SMILES: Cc1ccc(-c2nn3c(SCC(=O)Nc4cccc(F)c4)nc4ccccc4c3nc2=O)cc1
- Activity [2]: 32.93%
- Activity [3]: 69.51%
- Activity [4]: 65.22%
- Activity [5]: 93.48%
- Activity [6]: 97.83%
- Activity [8]: 41.46%

SMILES: Cc1ccc(-c2nn3c(SCC(=O)Nc4ccc(F)cc4)nc4ccccc4c3nc2=O)cc1
- Activity [2]: 133.33%
- Activity [3]: 250%
- Activity [4]: 8.16%
- Activity [5]: 36.73%
- Activity [6]: 75.51%
- Activity [8]: 166.67%

SMILES: O=C(CSc1nc2ccccc2c2nc(=O)c(-c3ccccc3)nn12)Nc1cccc(Cl)c1
- Activity [2]: 100%
- Activity [3]: 101.39%
- Activity [4]: 59.52%
- Activity [5]: 109.52%
- Activity [6]: 104.76%
- Activity [8]: 101.39%

SMILES: Cc1nn2c(SCC(=O)Nc3cccc(Cl)c3)nc3ccccc3c2nc1=O
- Activity [2]: 250%
- Activity [3]: 185.2%
- Activity [4]: 104.5%
- Activity [5]: 99.1%
- Activity [6]: 99.3%
- growth at 10 µM [11]: 57.2%
- Activity [8]: 42.9%

SMILES: O=C(CSc1nc2ccccc2c2nc(=O)c(-c3ccccc3)nn12)Nc1ccc(Cl)cc1
- Activity [2]: 212.8%
- Activity [3]: 88.9%
- Activity [4]: 142.9%
- Activity [5]: 120%
- Activity [6]: 100%
- growth at 10 µM [9]: 77.5%
- Activity [8]: 87.5%

SMILES: Cc1ccc(-c2nn3c(SCC(=O)Nc4ccc(Cl)cc4)nc4ccccc4c3nc2=O)cc1
- Activity [2]: 93.75%
- Activity [3]: 75%
- Activity [4]: 31.91%
- Activity [5]: 63.83%
- Activity [6]: 68.09%
- Activity [8]: 37.5%

SMILES: Cc1ccc(-c2nn3c(SCC(=O)Nc4ccccc4[N+](=O)[O-])nc4ccccc4c3nc2=O)cc1
- Activity [2]: 250%
- Activity [3]: 93%
- Activity [4]: 62.5%
- Activity [5]: 36%
- Activity [6]: 83.3%
- Activity [8]: 50%

SMILES: Cc1nn2c(SCC(=O)NCc3ccccc3)nc3ccccc3c2nc1=O
- Activity [2]: 115.4%
- Activity [3]: 72.7%
- Activity [4]: 91.7%
- Activity [5]: 87.5%
- Activity [6]: 66.7%
- growth at 10 µM [9]: 78.5%
- Activity [8]: 250%

SMILES: Cc1nn2c(SCC(=O)Nc3ccccc3)nc3ccccc3c2nc1=O
- Activity [2]: 61.11%
- Activity [3]: 88.89%
- Activity [4]: 95.59%
- Activity [5]: 98.53%
- Activity [6]: 95.59%
- Activity [8]: 57.78%

SMILES: O=C(CSc1nc2ccccc2c2nc(=O)c(-c3ccccc3)nn12)Nc1ccccc1
- Activity [2]: 83.33%
- Activity [3]: 90.28%
- Activity [4]: 47.62%
- Activity [5]: 78.57%
- Activity [6]: 95.24%
- Activity [8]: 80.56%

SMILES: COc1ccc(-c2nn3c(SCC(=O)Nc4ccccc4C)nc4ccccc4c3nc2=O)cc1
- Activity [2]: 94.55%
- Activity [3]: 90.91%
- Activity [4]: 68.42%
- Activity [5]: 82.46%
- Activity [6]: 96.49%
- Activity [8]: 94.55%

SMILES: Cc1cccc(NC(=O)CSc2nc3ccccc3c3nc(=O)c(C)nn23)c1
- Activity [2]: 178.57%
- Activity [3]: 196.43%
- Activity [4]: 73.12%
- Activity [5]: 98.92%
- Activity [6]: 96.77%
- Activity [8]: 14.29%

SMILES: COc1ccccc1NC(=O)CSc1nc2ccccc2c2nc(=O)c(-c3ccccc3)nn12
- Activity [2]: 11.36%
- Activity [3]: 22.73%
- Activity [4]: 53.85%
- Activity [5]: 63.46%
- Activity [6]: 71.15%
- Activity [8]: 18.18%

SMILES: COc1ccc(NC(=O)CSc2nc3ccccc3c3nc(=O)c(-c4ccc(C)cc4)nn23)cc1
- Activity [2]: 117%
- Activity [3]: 95.6%
- Activity [4]: 142.9%
- Activity [5]: 106%
- Activity [6]: 88.3%
- growth at 10 µM [1]: 57.9%
- growth at 10 µM [13]: 61.1%
- Activity [8]: 75%

SMILES: Cc1nn2c(SCC(=O)Nc3ccccc3C(F)(F)F)nc3ccccc3c2nc1=O
- Activity [2]: 100%
- Activity [3]: 100%
- Activity [4]: 88.89%
- Activity [5]: 86.67%
- Activity [6]: 88.89%
- Activity [8]: 97.14%

SMILES: O=C(CSc1nc2ccccc2c2nc(=O)c(-c3ccccc3)nn12)Nc1cccc(C(F)(F)F)c1
- Activity [2]: 203.13%
- Activity [3]: 187.5%
- Activity [4]: 46.67%
- Activity [5]: 100%
- Activity [6]: 96.67%
- Activity [8]: 187.5%

SMILES: CN(C)[C@@H]1C(O)=C(C(N)=O)C(=O)[C@@]2(O)C(O)=C3C(=O)c4c(O)cccc4[C@@](C)(O)[C@H]3C[C@@H]12 [TETRACYCLINE]
- Activity [2]: 0%
- Activity [3]: 0%
- Activity [4]: 0%
- Activity [5]: 9.1%
- Activity [6]: 80.7%
- Activity [8]: 0%
